# Results as given in ChEMBL document CHEMBL4219030, “Progress in the discovery of small molecule modulators of the Cys-loop superfamily receptors” (Bioorg Med Chem Lett, 2017).
# Experiments:
# [1] = target: Neuronal acetylcholine receptor subunit alpha-7 (Rattus norvegicus, UniProt Q05941); experiment: Agonist activity at rat brain membrane alpha7 nAChR
# [2] = target: T1, 5-hydroxytryptamine receptor 3A (Homo sapiens, UniProt P46098); experiment: Inhibition of recombinant human 5-HT3A receptor expressed in HEK293 cell membranes […] in presence of [3H]GR65630
# T1 sequence (P46098 whole entry): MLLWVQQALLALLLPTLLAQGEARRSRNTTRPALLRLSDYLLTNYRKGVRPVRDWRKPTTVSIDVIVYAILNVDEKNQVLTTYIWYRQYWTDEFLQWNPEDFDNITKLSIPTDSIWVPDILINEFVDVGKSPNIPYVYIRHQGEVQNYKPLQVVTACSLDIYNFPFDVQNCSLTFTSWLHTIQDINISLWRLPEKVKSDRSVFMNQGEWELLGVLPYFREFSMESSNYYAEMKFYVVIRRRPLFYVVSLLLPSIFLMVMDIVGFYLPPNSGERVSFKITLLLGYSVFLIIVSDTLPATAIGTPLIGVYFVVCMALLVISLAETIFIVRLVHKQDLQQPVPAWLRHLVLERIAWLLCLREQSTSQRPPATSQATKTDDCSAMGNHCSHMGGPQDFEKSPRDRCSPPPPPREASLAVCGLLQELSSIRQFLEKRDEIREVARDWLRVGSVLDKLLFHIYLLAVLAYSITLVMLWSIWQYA
# [3] = target: T1, 5-hydroxytryptamine receptor 3A; experiment: Displacement of [3H]granisetron from human 5-HT3A receptor expressed in HEK293 cells by scintillation counting method; format: cell-based
# [4] = target: T2, Serotonin 3 (5-HT3) receptor (Homo sapiens, UniProt O95264+P46098); experiment: Displacement of [3H]granisetron from human 5-HT3AB receptor expressed in HEK293 cells by scintillation counting method; format: cell-based
# T2 sequence (P46098 whole entry): T1 sequence (P46098 whole entry)
# T2 sequence (O95264 whole entry): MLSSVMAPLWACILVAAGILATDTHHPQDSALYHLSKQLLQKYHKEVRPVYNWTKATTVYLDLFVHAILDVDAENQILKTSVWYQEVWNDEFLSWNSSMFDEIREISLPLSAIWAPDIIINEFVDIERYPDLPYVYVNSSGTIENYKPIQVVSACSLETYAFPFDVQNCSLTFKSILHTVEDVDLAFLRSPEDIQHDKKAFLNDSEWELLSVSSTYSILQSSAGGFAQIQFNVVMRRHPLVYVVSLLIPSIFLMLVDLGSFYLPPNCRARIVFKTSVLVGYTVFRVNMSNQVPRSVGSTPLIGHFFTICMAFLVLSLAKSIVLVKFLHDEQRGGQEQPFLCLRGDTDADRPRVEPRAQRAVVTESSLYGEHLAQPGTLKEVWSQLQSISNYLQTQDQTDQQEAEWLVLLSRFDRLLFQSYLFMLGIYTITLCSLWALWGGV
# [5] = target: T3, 5-hydroxytryptamine receptor 3A (Cavia porcellus, UniProt O70212); experiment: Antagonist activity 5-HT3A receptor in guinea pig ileum assessed as inhibition of 2-methyl-5-HT induced response preincubated for 10 mins followed by agonist addition; conditions: read-out: pA2 (converted)
# T3 sequence (O70212 whole entry): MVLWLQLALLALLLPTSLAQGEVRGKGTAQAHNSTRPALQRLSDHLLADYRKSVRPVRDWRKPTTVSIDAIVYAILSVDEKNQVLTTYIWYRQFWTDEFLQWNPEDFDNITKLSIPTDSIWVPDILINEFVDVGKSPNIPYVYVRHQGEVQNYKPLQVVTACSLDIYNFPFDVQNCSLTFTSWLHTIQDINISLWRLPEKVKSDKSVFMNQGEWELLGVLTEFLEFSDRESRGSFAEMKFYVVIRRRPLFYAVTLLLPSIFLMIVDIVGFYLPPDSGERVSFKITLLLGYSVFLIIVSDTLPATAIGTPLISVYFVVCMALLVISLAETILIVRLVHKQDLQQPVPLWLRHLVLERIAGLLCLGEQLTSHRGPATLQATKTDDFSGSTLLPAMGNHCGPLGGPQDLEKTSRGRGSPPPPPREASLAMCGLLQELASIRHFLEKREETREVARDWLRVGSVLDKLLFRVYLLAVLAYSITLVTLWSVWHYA
# [6] = target: T1, 5-hydroxytryptamine receptor 3A; experiment: Inhibition of human 5-HT3A receptor expressed in […] cells after 30 mins by Fluo-4-AM dye based FLIPR assay; format: cell-based
# [7] = target: 5-hydroxytryptamine receptor 3A/3E (Homo sapiens, UniProt A5X5Y0+P46098); experiment: Inhibition of human 5-HT3AE receptor expressed in […] cells after 30 mins by Fluo-4-AM dye based FLIPR assay; format: cell-based
# Sequence of 5-hydroxytryptamine receptor 3A/3E (A5X5Y0 whole entry, one chain of several): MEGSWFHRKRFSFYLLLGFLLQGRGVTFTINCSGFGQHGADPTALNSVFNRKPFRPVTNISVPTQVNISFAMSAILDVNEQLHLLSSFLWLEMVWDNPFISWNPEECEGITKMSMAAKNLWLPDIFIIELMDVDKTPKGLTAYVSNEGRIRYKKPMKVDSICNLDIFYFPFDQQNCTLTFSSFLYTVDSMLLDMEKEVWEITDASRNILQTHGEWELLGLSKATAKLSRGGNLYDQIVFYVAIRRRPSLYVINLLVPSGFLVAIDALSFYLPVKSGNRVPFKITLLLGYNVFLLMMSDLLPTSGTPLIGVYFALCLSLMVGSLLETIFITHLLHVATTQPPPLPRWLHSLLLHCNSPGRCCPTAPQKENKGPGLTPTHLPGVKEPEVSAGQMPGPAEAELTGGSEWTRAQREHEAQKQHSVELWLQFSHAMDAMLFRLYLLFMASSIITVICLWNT
# [8] = target: 5-hydroxytryptamine receptor 3A/3C (Homo sapiens, UniProt P46098+Q8WXA8); experiment: Inhibition of human 5-HT3AC receptor expressed in […] cells after 30 mins by Fluo-4-AM dye based FLIPR assay; format: cell-based
# Sequence of 5-hydroxytryptamine receptor 3A/3C (Q8WXA8 whole entry, one chain of several): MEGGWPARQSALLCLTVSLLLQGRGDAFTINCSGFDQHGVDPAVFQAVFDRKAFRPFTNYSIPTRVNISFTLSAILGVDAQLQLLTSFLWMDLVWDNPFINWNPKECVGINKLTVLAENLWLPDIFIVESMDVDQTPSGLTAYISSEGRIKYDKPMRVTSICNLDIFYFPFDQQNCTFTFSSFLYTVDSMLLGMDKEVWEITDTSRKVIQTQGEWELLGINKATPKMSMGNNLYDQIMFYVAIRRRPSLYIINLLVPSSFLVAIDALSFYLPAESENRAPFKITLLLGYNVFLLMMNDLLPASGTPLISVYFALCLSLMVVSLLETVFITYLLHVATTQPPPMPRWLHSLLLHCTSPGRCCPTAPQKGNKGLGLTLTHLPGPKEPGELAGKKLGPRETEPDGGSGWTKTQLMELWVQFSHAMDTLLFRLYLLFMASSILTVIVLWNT
# [9] = target: T2, Serotonin 3 (5-HT3) receptor; experiment: Inhibition of human 5-HT3AB receptor expressed in […] cells after 30 mins by Fluo-4-AM dye based FLIPR assay; format: cell-based
# [10] = target: T4, Glycine receptor subunit alpha-1 (Homo sapiens) (UniProt P23415); experiment: Positive allosteric modulation of human glycine receptor alpha1 expressed in HEK293 cells assessed as potentiation of glycine-induced current response at 10 uM measure for 3 to 6 secs by whole cell patch-clamp method relative to glycine; format: cell-based
# T4 sequence (whole entry): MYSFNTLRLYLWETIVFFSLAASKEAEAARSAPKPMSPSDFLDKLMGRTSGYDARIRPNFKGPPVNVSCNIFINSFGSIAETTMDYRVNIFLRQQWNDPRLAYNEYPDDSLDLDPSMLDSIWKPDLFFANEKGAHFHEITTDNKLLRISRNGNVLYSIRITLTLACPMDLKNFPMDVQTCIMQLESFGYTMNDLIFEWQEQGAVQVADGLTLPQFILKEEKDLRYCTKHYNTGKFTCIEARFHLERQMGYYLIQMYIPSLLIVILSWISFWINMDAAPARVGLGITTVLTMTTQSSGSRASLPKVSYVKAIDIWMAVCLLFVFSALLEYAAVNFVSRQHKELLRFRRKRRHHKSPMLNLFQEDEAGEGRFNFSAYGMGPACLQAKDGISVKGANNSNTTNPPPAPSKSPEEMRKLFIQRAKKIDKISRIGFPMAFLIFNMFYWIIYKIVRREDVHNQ
# [11] = target: Gamma-aminobutyric acid receptor subunit alpha-2/beta-3 (Homo sapiens) (UniProt P28472+P47869); experiment: Positive allosteric modulation of recombinant human GABAA receptor alpha2beta3 expressed in Xenopus oocytes assessed as potentiation of GABA induced chloride current response relative to GABA; format: cell-based
# [12] = target: GABA-A receptor; alpha-5/beta-3/gamma-2 (Homo sapiens) (UniProt P18507+P28472+P31644); experiment: Positive allosteric modulation of recombinant human GABAA receptor alpha5beta3gamma2 expressed in Xenopus oocytes assessed as potentiation of GABA induced chloride currents relative to 10 uM GABA; format: cell-based
# [13] = target: GABA-A receptor; alpha-6/beta-3/gamma-2 (Homo sapiens) (UniProt P18507+P28472+Q16445); experiment: Positive allosteric modulation of recombinant human GABAA receptor alpha6beta3gamma2 expressed in Xenopus oocytes assessed as potentiation of GABA induced chloride currents relative to 10 uM GABA; format: cell-based
# [14] = target: GABA A receptor alpha-4/beta-3/gamma-2 (Homo sapiens, UniProt P18507+P28472+P48169); experiment: Positive allosteric modulation of recombinant human GABAA receptor alpha4beta3gamma2 expressed in Xenopus oocytes assessed as potentiation of GABA induced chloride currents relative to 10 uM GABA; format: cell-based
# [15] = target: Gamma-aminobutyric acid receptor subunit alpha-5/beta-3 (Homo sapiens) (UniProt P28472+P31644); experiment: Positive allosteric modulation of recombinant human GABAA receptor alpha5beta3 expressed in Xenopus oocytes assessed as potentiation of GABA induced chloride current response relative to GABA; format: cell-based
# [16] = target: GABA-A receptor; alpha-2/beta-3/gamma-2 (Homo sapiens) (UniProt P18507+P28472+P47869); experiment: Positive allosteric modulation of recombinant human GABAA receptor alpha2beta3gamma2 expressed in Xenopus oocytes assessed as potentiation of GABA induced chloride currents relative to 10 uM GABA; format: cell-based
# [17] = target: GABA-A receptor; alpha-3/beta-3/gamma-2 (Homo sapiens) (UniProt P18507+P28472+P34903); experiment: Positive allosteric modulation of recombinant human GABAA receptor alpha3beta3gamma2 expressed in Xenopus oocytes assessed as potentiation of GABA induced chloride currents relative to 10 uM GABA; format: cell-based
# [18] = target: GABA-A receptor; alpha-1/beta-3/gamma-2 (Homo sapiens) (UniProt P14867+P18507+P28472); experiment: Positive allosteric modulation of recombinant human GABAA receptor alpha1beta3gamma2 expressed in Xenopus oocytes assessed as potentiation of GABA induced chloride current response relative to 10 uM GABA; format: cell-based
# [19] = target: GABA-A receptor alpha-1/beta-3 (Homo sapiens) (UniProt P14867+P28472); experiment: Positive allosteric modulation of recombinant human GABAA receptor alpha1beta3 expressed in Xenopus oocytes assessed as potentiation of GABA induced chloride current response relative to GABA; format: cell-based
# [20] = target: Gamma-aminobutyric acid receptor subunit alpha-3/beta-3 (Homo sapiens) (UniProt P28472+P34903); experiment: Positive allosteric modulation of recombinant human GABAA receptor alpha3beta3 expressed in Xenopus oocytes assessed as potentiation of GABA induced chloride current response relative to GABA; format: cell-based
# [21] = target: T4, Glycine receptor subunit alpha-1 (Homo sapiens); conditions: HEK293, 30 uM
# Description: Positive allosteric modulation of recombinant human glycine receptor alpha1 expressed in HEK293 cells assessed as increase in glycine-induced current at 30 uM at -60 mV holding potential measured for 1 to 2 secs for every 60 secs by whole cell patch-clamp method relative to glycine
# [22] = target: Gamma-aminobutyric acid receptor subunit alpha-1/beta-2 (Rattus norvegicus) (UniProt P62813+P63138); conditions: HEK293, 30 uM
# Description: Positive allosteric modulation of recombinant rat GABAA receptor alpha1beta2 expressed in HEK293 cells assessed as increase in GABA-induced current at 30 uM at -100 mV holding potential measured for 1 to 2 secs for every 60 secs by whole cell patch-clamp method relative to GABA
# [23] = target: T1, 5-hydroxytryptamine receptor 3A; experiment: Agonist activity at human […] receptor expressed in Xenopus laevis oocytes; format: cell-based
# [24] = target: T2, Serotonin 3 (5-HT3) receptor; experiment: Agonist activity at human […] receptor expressed in Xenopus laevis oocytes; format: cell-based
# Sequence of Neuronal acetylcholine receptor subunit alpha-7 (Q05941 whole entry): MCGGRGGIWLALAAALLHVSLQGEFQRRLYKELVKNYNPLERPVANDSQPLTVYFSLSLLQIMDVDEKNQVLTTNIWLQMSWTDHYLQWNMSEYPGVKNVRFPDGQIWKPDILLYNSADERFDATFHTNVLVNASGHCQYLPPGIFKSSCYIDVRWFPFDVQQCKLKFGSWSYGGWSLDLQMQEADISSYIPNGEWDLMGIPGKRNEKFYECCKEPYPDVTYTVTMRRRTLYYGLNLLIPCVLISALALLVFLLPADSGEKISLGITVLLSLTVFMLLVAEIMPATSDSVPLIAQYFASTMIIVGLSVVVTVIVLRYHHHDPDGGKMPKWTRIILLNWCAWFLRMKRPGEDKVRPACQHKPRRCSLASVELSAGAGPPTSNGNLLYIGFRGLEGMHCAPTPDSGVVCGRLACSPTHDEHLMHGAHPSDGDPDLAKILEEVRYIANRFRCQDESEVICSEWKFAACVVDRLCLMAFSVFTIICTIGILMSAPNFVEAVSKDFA
smiles,measurement,setting,value
O=C(N[C@H]1CN2CCC1CC2)c1ccc2ncccc2c1,IC50,[1],10000 nM
same,IC50,[2],150 nM
CN1CCN(c2nc3ccccc3nc2Cl)CC1,Ki,[3],0.04 nM
same,Ki,[4],22 nM
COc1nc2ccccc2nc1C(=O)Nc1ccc(C)cc1,Kb,[5],50.1 nM
c1ccc2c(CSc3[nH]cnc4ncnc3-4)cccc2c1,IC50,[6],620 nM
same,IC50,[7],710 nM
same,IC50,[8],840 nM
same,IC50,[9],430 nM
CCCCCc1ccc2c(c1)OC(C)(C)[C@@H]1CCC(C)=C[C@@H]21,fold change (FC),[10],30
O=C1C=C[C@H]([C@H]2c3cccc([N+](=O)[O-])c3C=CN2C(=O)OCc2ccccc2)O1,fold change (FC),[11],1.8
same,fold change (FC),[12],1.4
same,fold change (FC),[13],2.9
same,fold change (FC),[14],1.4
same,fold change (FC),[15],1.4
same,fold change (FC),[16],2.1
same,fold change (FC),[17],2.9
same,fold change (FC),[18],2.6
same,fold change (FC),[19],1.4
same,fold change (FC),[20],1.4
CC(C)c1cccc(C(C)C)c1O,Emax,[21],189%
same,Emax,[22],279%
N=C(N)NC(=N)Nc1cccc(Cl)c1,EC50,[23],3800 nM
same,EC50,[24],2800 nM
